Earlier results on one compound are cited in patent US20120220783A1, “SALTS OF SUNITINIB” (RANBAXY LABORATORIES LIMITED, priority 2009, published 2012).

The conditions of the series: crystalline form, statement of WO 2009/104021.

For the compound `CCN(CC)CCNC(=O)c1c(C)[nH]c(/C=C2\C(=O)Nc3ccc(F)cc32)c1C.O=C(O)C[C@H](O)C(=O)O` [Form II of sunitinib L-malate, butanedioic acid, hydroxy-, (2S)-, compound with N-[2-(diethylamino)ethyl]-5-[(Z)-(5-fluoro-1,2-dihydro-2-oxo-3H-indol-3-ylidine)methyl]-2,4-dimethyl-1H-pyrrole-3-carboxamide (1:1)], the hygroscopicity result is given as “hygroscopic”. Besides, the “thermodynamic stability / form conversion” value (appears to readily convert to Form I) is on record as “thermodynamically unstable”.
